{"source": "patent US8440628B2", "about": "“Medical compositions containing ghrelin” (Daiichi Sankyo Company, Limited, priority 2002, dated 2013)", "type_in_all_cases": "physicochemical", "key": {"[1]": {"assay": "Stability of human ghrelin in 0.1M HCl and Mcllvain buffer solutions of various pH at 25°C (Example 2, HPLC peak area ratio)", "conditions": "human ghrelin 0.5 mg/mL in Mcllvain buffer", "procedure": "Human ghrelin was dissolved in the following aqueous solutions in the concentration of about 0.15 μmol/mL (0.5 mg/mL).\n0.1M HCl aqueous solution (pH: 1.1)\nThe pH was adjusted with 0.1M citric aqueous acid and 0.2M dibasic sodium phosphate aqueous solution.\nEach solution were stored at 25±2° C. for 8, 24, 48 and 72 hours respectively, and the obtained solutions were detected by HPLC analysis in comparison to the solutions before storage. […] No significant changes of pH in solution before storage and after storage were observed."}, "[2]": {"assay": "Stability of human ghrelin in Britton-Robinson buffer solutions of various pH at 40°C (Example 3)", "conditions": "pH of 3.1, 4.0, 5.0 and 6.0, 40±1°C, storage time not stated, target value 85%", "procedure": "Human ghrelin, which is one of the ghrelins, was dissolved in the Britton-Robinson buffer solutions which is adjusted by combining 0.04M phosphoric acid-acetic acid-boric acid aqueous solution and 0.2M sodium hydrate aqueous solution in appropriate ratio, having pH of 2.1, 3.1, 4.0, 5.0, 6.0, 7.0 and 7.9 to obtain an aqueous solution containing human ghrelin in the concentration of about 0.15 μmol/mL (0.5 mg/mL). The obtained solution was filled in brownish glass ampoules and the ampoules were sealed with fire. For the calculation of kinetic constant, the certain degrees of degradation products have to be occurred in the aqueous solution of the ghrelins, and therefore, the ampoules were stored at 40±1° C., which was severe conditions for storage. The concentration (residual ratio) of human ghrelin was conducted by HPLC with time. At the same time, the pH of the solution was measured and it was confirmed that there was no significant changes of pH in solution.\nThe kinetic constants in each pH solution were calculated from the sequential change of the residual ratio, and the results were shown in FIG. 2."}, "[3]": {"assay": "Stability of human ghrelin in citrate buffer solutions, 40°C/2 weeks (Example 4)", "procedure": "The obtained solutions were filled in brownish glass ampoules and the ampoules were sealed with fire, then, each ampoules were stored at 40±1° C. for 2 weeks. After storage for 2 weeks, the HPLC analysis of the solutions was conducted to calculate the residual ratio from the concentration of human ghrelin. The change of pH value was also measured."}, "[4]": {"assay": "Stability of human ghrelin in pH-adjusted purified water at 25°C (Example 7)", "conditions": "for Peak area ratio to total peak area: 25±2°C", "procedure": "Human ghrelin was dissolved in the purified water with about 0.03 μmol/mL (0.1 mg/mL). […] This solution was divided into quarter, and one portion was kept alone and the pH values of the remaining three portions were adjusted to pH 1.8 (with 17 mM of hydrochloric acid), pH 3.9 (with 0.20 mM of hydrochloric acid) and pH 7.8 (with 0.24 mM of sodium hydroxide) respectively, by adding along with hydrochloric acid or sodium hydroxide aqueous solution."}, "[5]": {"conditions": "human ghrelin 0.5 mg/mL in citrate buffer solution pH 3.5, after storage for 40° C./2 weeks"}, "[6]": {"conditions": "human ghrelin 0.5 mg/mL in citrate buffer solution pH 3.5, just after preparation"}, "[7]": {"conditions": "human ghrelin 0.5 mg/mL in citrate buffer solution pH 4.0, after storage for 40° C./2 weeks"}, "[8]": {"conditions": "human ghrelin 0.5 mg/mL in citrate buffer solution pH 4.0, just after preparation"}, "[9]": {"conditions": "human ghrelin 0.5 mg/mL in citrate buffer solution pH 4.5, after storage for 40° C./2 weeks"}, "[10]": {"conditions": "human ghrelin 0.5 mg/mL in citrate buffer solution pH 4.5, just after preparation"}, "[11]": {"conditions": "human ghrelin 0.5 mg/mL in citrate buffer solution pH 5.0, after storage for 40° C./2 weeks"}, "[12]": {"conditions": "human ghrelin 0.5 mg/mL in citrate buffer solution pH 5.0, just after preparation"}}}
{"smiles": "CCCCCCCC(=O)OC[C@H](NC(=O)[C@H](CO)NC(=O)CN)C(=O)N[C@@H](Cc1ccccc1)C(=O)N[C@@H](CC(C)C)C(=O)N[C@@H](CO)C(=O)N1CCC[C@H]1C(=O)N[C@@H](CCC(=O)O)C(=O)N[C@@H](Cc1c[nH]cn1)C(=O)N[C@@H](CCC(N)=O)C(=O)N[C@@H](CCCNC(=N)N)C(=O)N[C@H](C(=O)N[C@@H](CCC(N)=O)C(=O)N[C@@H](CCC(N)=O)C(=O)N[C@@H](CCCNC(=N)N)C(=O)N[C@@H](CCCCN)C(=O)N[C@@H](CCC(=O)O)C(=O)N[C@@H](CO)C(=O)N[C@@H](CCCCN)C(=O)N[C@@H](CCCCN)C(=O)N1CCC[C@H]1C(=O)N1CCC[C@H]1C(=O)N[C@@H](C)C(=O)N[C@@H](CCCCN)C(=O)N[C@@H](CC(C)C)C(=O)N[C@@H](CCC(N)=O)C(=O)N1CCC[C@H]1C(=O)N[C@@H](CCCNC(=N)N)C(=O)O)C(C)C", "note": "[Human ghrelin]", "values": [{"measurement": "Peak area ratio to total peak area", "setting": "[1]; pH 6, 25±2°C, 48 hr. after, listed as human ghrelin", "value": "less than 98%"}, {"measurement": "Peak area ratio to total peak area", "setting": "[1]; pH 6, 25±2°C, 72 hr. after", "value": 96.92, "unit": "%"}, {"measurement": "pH observed", "setting": "[1]; pH 6, 25±2°C, 72 hr. after", "value": 6.0}, {"measurement": "Peak area ratio to total peak area", "setting": "[1]; pH 6, 25±2°C, before storage", "value": 99.07, "unit": "%"}, {"measurement": "pH observed", "setting": "[1]; pH 6, 25±2°C, before storage", "value": 6.0}, {"measurement": "Peak area ratio to total peak area", "setting": "[1]; pH 7, 25±2°C, 8 hr. after", "value": 98.15, "unit": "%"}, {"measurement": "pH observed", "setting": "[1]; pH 7, 25±2°C, 8 hr. after", "value": 7.0}, {"measurement": "Peak area ratio to total peak area", "setting": "[1]; pH 7, 25±2°C, 24 hr. after", "value": 96.18, "unit": "%"}, {"measurement": "pH observed", "setting": "[1]; pH 7, 25±2°C, 24 hr. after", "value": 7.0}, {"measurement": "Peak area ratio to total peak area", "setting": "[1]; pH 7, 25±2°C, 24 hr. after, listed as human ghrelin", "value": "less than 98%"}, {"measurement": "Peak area ratio to total peak area", "setting": "[1]; pH 7, 25±2°C, 48 hr. after", "value": 93.44, "unit": "%"}, {"measurement": "pH observed", "setting": "[1]; pH 7, 25±2°C, 48 hr. after", "value": 7.0}, {"measurement": "Peak area ratio to total peak area", "setting": "[1]; pH 7, 25±2°C, 72 hr. after", "value": 90.75, "unit": "%"}, {"measurement": "pH observed", "setting": "[1]; pH 7, 25±2°C, 72 hr. after", "value": 7.0}, {"measurement": "Peak area ratio to total peak area", "setting": "[1]; pH 7, 25±2°C, before storage", "value": 98.97, "unit": "%"}, {"measurement": "pH observed", "setting": "[1]; pH 7, 25±2°C, before storage", "value": 7.0}, {"measurement": "Peak area ratio to total peak area", "setting": "[1]; pH 8, 25±2°C, 8 hr. after", "value": 94.73, "unit": "%"}, {"measurement": "pH observed", "setting": "[1]; pH 8, 25±2°C, 8 hr. after", "value": 7.9}, {"measurement": "Peak area ratio to total peak area", "setting": "[1]; pH 8, 25±2°C, 24 hr. after", "value": 87.32, "unit": "%"}, {"measurement": "pH observed", "setting": "[1]; pH 8, 25±2°C, 24 hr. after", "value": 7.9}, {"measurement": "Peak area ratio to total peak area", "setting": "[1]; pH 8, 25±2°C, 48 hr. after", "value": 76.95, "unit": "%"}, {"measurement": "pH observed", "setting": "[1]; pH 8, 25±2°C, 48 hr. after", "value": 7.9}, {"measurement": "Peak area ratio to total peak area", "setting": "[1]; pH 8, 25±2°C, 72 hr. after", "value": 68.30, "unit": "%"}, {"measurement": "pH observed", "setting": "[1]; pH 8, 25±2°C, 72 hr. after", "value": 7.9}, {"measurement": "Peak area ratio to total peak area", "setting": "[1]; pH 8, 25±2°C, before storage", "value": 98.61, "unit": "%"}, {"measurement": "pH observed", "setting": "[1]; pH 8, 25±2°C, before storage", "value": 8.0}, {"measurement": "Residual ratio", "setting": "[2]", "value": "more than 87%"}, {"measurement": "Residual ratio", "setting": "[3]; [5]", "value": 89, "unit": "%"}, {"measurement": "pH observed", "setting": "[3]; [5]", "value": 3.5}, {"measurement": "Residual ratio", "setting": "[3]; [6]", "value": 100, "unit": "%"}, {"measurement": "pH observed", "setting": "[3]; [6]", "value": 3.6}, {"measurement": "Residual ratio", "setting": "[3]; [7]", "value": 88, "unit": "%"}, {"measurement": "pH observed", "setting": "[3]; [7]", "value": 4.0}, {"measurement": "Residual ratio", "setting": "[3]; [8]", "value": 100, "unit": "%"}, {"measurement": "pH observed", "setting": "[3]; [8]", "value": 4.0}, {"measurement": "Residual ratio", "setting": "[3]; [9]", "value": 86, "unit": "%"}, {"measurement": "pH observed", "setting": "[3]; [9]", "value": 4.4}, {"measurement": "Residual ratio", "setting": "[3]; [10]", "value": 100, "unit": "%"}, {"measurement": "pH observed", "setting": "[3]; [10]", "value": 4.5}, {"measurement": "Residual ratio", "setting": "[3]; [11]", "value": 85, "unit": "%"}, {"measurement": "pH observed", "setting": "[3]; [11]", "value": 4.9}, {"measurement": "Residual ratio", "setting": "[3]; [12]", "value": 100, "unit": "%"}, {"measurement": "pH observed", "setting": "[3]; [12]", "value": 5.0}, {"measurement": "Peak area ratio to total peak area", "setting": "[4]; human ghrelin 0.1 mg/mL in purified water adjusted to pH 1.8 with hydrochloric acid, 1 day after", "value": 97.68, "unit": "%"}, {"measurement": "Peak area ratio to total peak area", "setting": "[4]; human ghrelin 0.1 mg/mL in purified water adjusted to pH 1.8 with hydrochloric acid, 1 day after, listed as human ghrelin", "value": "less than 98%"}, {"measurement": "Peak area ratio to total peak area", "setting": "[4]; human ghrelin 0.1 mg/mL in purified water adjusted to pH 1.8 with hydrochloric acid, 3 days after", "value": 95.01, "unit": "%"}, {"measurement": "Peak area ratio to total peak area", "setting": "[4]; human ghrelin 0.1 mg/mL in purified water adjusted to pH 1.8 with hydrochloric acid, before storage", "value": 99.16, "unit": "%"}, {"measurement": "Peak area ratio to total peak area", "setting": "[4]; human ghrelin 0.1 mg/mL in purified water adjusted to pH 3.9 with hydrochloric acid, 1 day after", "value": 99.19, "unit": "%"}, {"measurement": "Peak area ratio to total peak area", "setting": "[4]; human ghrelin 0.1 mg/mL in purified water adjusted to pH 3.9 with hydrochloric acid, 3 days after", "value": 99.14, "unit": "%"}, {"measurement": "Peak area ratio to total peak area", "setting": "[4]; human ghrelin 0.1 mg/mL in purified water adjusted to pH 3.9 with hydrochloric acid, before storage", "value": 99.21, "unit": "%"}, {"measurement": "Peak area ratio to total peak area", "setting": "[4]; human ghrelin 0.1 mg/mL in purified water adjusted to pH 7.8 with sodium hydroxide, 1 day after", "value": 94.78, "unit": "%"}, {"measurement": "Peak area ratio to total peak area", "setting": "[4]; human ghrelin 0.1 mg/mL in purified water adjusted to pH 7.8 with sodium hydroxide, 1 day after, listed as human ghrelin", "value": "less than 98%"}, {"measurement": "Peak area ratio to total peak area", "setting": "[4]; human ghrelin 0.1 mg/mL in purified water adjusted to pH 7.8 with sodium hydroxide, 3 days after", "value": 87.84, "unit": "%"}, {"measurement": "Peak area ratio to total peak area", "setting": "[4]; human ghrelin 0.1 mg/mL in purified water adjusted to pH 7.8 with sodium hydroxide, before storage", "value": 98.85, "unit": "%"}, {"measurement": "Peak area ratio to total peak area", "setting": "[4]; human ghrelin 0.1 mg/mL in purified water, pH 4.7 (not adjusted), 1 day after", "value": 99.12, "unit": "%"}, {"measurement": "Peak area ratio to total peak area", "setting": "[4]; human ghrelin 0.1 mg/mL in purified water, pH 4.7 (not adjusted), 3 days after", "value": 98.94, "unit": "%"}, {"measurement": "Peak area ratio to total peak area", "setting": "[4]; human ghrelin 0.1 mg/mL in purified water, pH 4.7 (not adjusted), before storage", "value": 99.20, "unit": "%"}, {"measurement": "pH of the solution", "setting": "[4]; human ghrelin dissolved in purified water, about 0.03 μmol/mL (0.1 mg/mL)", "value": 4.7}]}
